In US10667517B2, “2-(Het)aryl-substituted fused heterocycle derivatives as pesticides” (BAYER CROPSCIENCE AKTIENGESELLSCHSAFT, priority 2015, dated 2020):

Assay: log P (neutral), HPLC on reversed-phase column (C 18), LC-MS neutral range
Type: physicochemical
Details: HPLC reversed-phase C 18, 55° C., pH 7.8, ammonium hydrogencarbonate/acetonitrile
Procedure: Temperature: 55° C. […] Called log P (neutral) in the table.

| SMILES | log P (neutral) |
| --- | --- |
| O=C(CBr)c1nc(F)ccc1F [2-Bromo-1-(3,6-difluoropyridin-2-yl)ethanone] | 1.95 |
| CCS(=O)(=O)c1ccc(NC2COC2)nc1-c1nc2cc(C(F)(F)F)cnc2n1C [Example I-26] | 2.27 |
| CCS(=O)(=O)c1ccc(-n2nccn2)nc1-c1cn2cnc(C(F)(F)F)cc2n1 [Example I-27] | 2.28 |
| CCS(=O)(=O)c1ccc(-n2cncn2)nc1-c1cn2cnc(C(F)(F)F)cc2n1 [Example I-28] | 2.19 |
| CCS(=O)(=O)c1ccc(NC(=O)C(F)(F)F)nc1-c1nc2cc(C(F)(F)F)cnc2o1 [Example I-40] | 3.09 |
| CCS(=O)(=O)c1ccc(-n2cc(Cl)cn2)nc1-c1nc2cc(C(F)(F)F)cnc2o1 [Example I-41] | 4.01 |
| CCS(=O)(=O)c1ccc(-n2ccc(C(F)(F)F)n2)nc1-c1nc2cc(C(F)(F)F)cnc2o1 [Example I-42] | 4.17 |
| CCS(=O)(=O)c1ccc(-n2cncn2)nc1-c1nc2cc(C(F)(F)F)nnc2n1C [Example I-43] | 2.08 |
| CCS(=O)(=O)c1ccc(-n2nccn2)nc1-c1nc2cc(C(F)(F)F)nnc2n1C [Example I-44] | 2.21 |
| CCS(=O)(=O)c1ccc(-n2cccn2)nc1-c1cn2cnc(C(F)(F)F)cc2n1 [Example I-46] | 2.58 |

Same assay, conditions: pH 7.8

| SMILES | log P (neutral) |
| --- | --- |
| CCS(=O)(=O)c1ccc(-n2ccnc2)nc1-c1cn2cnc(C(F)(F)F)cc2n1 [Example I-45] | 2.07 |

Same assay, conditions: reversed-phase HPLC column (C 18), pH 7.8, HPLC reversed-phase C 18, 55° C., pH 7.8, ammonium hydrogencarbonate/acetonitrile

| SMILES | chromatographic logP |
| --- | --- |
| CC(=O)c1nc(F)ccc1F [1-(3,6-Difluoropyridin-2-yl)ethanone] | 1.24 |
| O=C(CBr)c1nc(F)ccc1F [2-Bromo-1-(3,6-difluoropyridin-2-yl)ethanone] | 1.93 |
| CON(C)C(=O)c1nc(F)ccc1F [3,6-Difluoro-N-methoxy-N-methylpyridine-2-carboxamide] | 1.05 |
| CCSc1ccc(Br)nc1C(=O)O [6-Bromo-3-(ethylsulphanyl)pyridine-2-carboxylic acid] | 1.79 |
| CCS(=O)(=O)c1ccc(-n2cc(Cl)cn2)nc1-c1cn2cc(C(F)(F)F)ncc2n1 [Example I-18, 2-[6-(4-Chloro-1H-pyrazol-1-yl)-3-(ethylsulphonyl)pyridin-2-yl]-6-(trifluoromethyl)imidazo[1,2-a]pyrazine] | 3.44 |
| CCS(=O)(=O)c1ccc(NC(C)=O)nc1-c1nc2cc(C(F)(F)F)cnc2o1 [Example I-19, N-{5-(Ethylsulphonyl)-6-[6-(trifluoromethyl) [1,3]oxazolo[5,4-b]pyridin-2-yl]pyridin-2-yl}acetamide] | 2.44 |
| CCS(=O)(=O)c1ccc(C(=O)NC)nc1-c1nc2cc(C(F)(F)F)cnc2n1C [Example I-34, 5-(Ethylsulphonyl)-N-methyl-6-[3-methyl-6-(trifluoromethyl)-3H-imidazo[4,5-b]pyridin-2-yl]pyridine-2-carboxamide] | 2.36 |
| CCS(=O)(=O)c1ccc(-n2cc(Cl)cn2)nc1-c1nc2cc(C(F)(F)F)nnc2n1C [Example I-35, 6-[6-(4-Chloropyrazol-1-yl)-3-ethylsulphonyl-2-pyridyl]-7-methyl-3-(trifluoromethyl)imidazo[4,5-c]pyridazine] | 3.38 |
| CCS(=O)(=O)c1ccc(C(=O)NC)nc1-c1nc2cc(C(F)(F)F)nnc2n1C [Example I-39, 5-(Ethylsulphonyl)-N-methyl-6-[7-methyl-3-(trifluoromethyl)-7H-imidazo[4,5-c]pyridazin-6-yl]pyridine-2-carboxamide] | 1.96 |
| Cn1c(-c2nc(F)ccc2F)nc2cc(C(F)(F)F)ccc21 [IX-1, 2-(3,6-Difluoropyridin-2-yl)-1-methyl-5-(trifluoromethyl)-1H-benzimidazole] | 2.83 |
